# From ChEMBL document CHEMBL1201862, “PubChem BioAssay data set” (2004)
#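 Dose response: 5 concentrations. Exposure: 48 h. Format: 96-well plates. Endpoint: linear interpolation; highest concentration if not reached. Here, GI50 denotes the concentration required for 50% inhibition of growth.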 The source made the active and inactive calls. Cut-off read from the data, not from the text of the source: active = GI50 up to about 1.1 µM and inactive = higher.
# Legend:
# Assay in all cases: inhibition of tumour cell growth, NCI panel, 48 h
# HOP-62 = system: HOP-62
# SK-OV-3 = system: SK-OV-3
# U-251 = system: U-251
# LOX IMVI = system: LOX IMVI
# RPMI-8226 = system: RPMI-8226
# SK-MEL-2 = system: SK-MEL-2
# NCI-H23 = system: NCI-H23
# MCF7 = system: MCF7
# SNB-19 = system: SNB-19
# MDA-N = system: MDA-N
# CAKI-1 = system: CAKI-1
# SF-295 = system: SF-295
# MDA-MB-435 = system: MDA-MB-435
# COLO 205 = system: COLO 205
# IGROV-1 = system: IGROV-1
# SN12C = system: SN12C
# HCT-116 = system: HCT-116
# HT-29 = system: HT-29
# SNB-75 = system: SNB-75
# Hs-578T = system: Hs-578T
SMILES,GI50 (HOP-62),GI50 (SK-OV-3),GI50 (U-251),GI50 (LOX IMVI),GI50 (RPMI-8226),GI50 (SK-MEL-2),GI50 (NCI-H23),GI50 (MCF7),GI50 (SNB-19),GI50 (MDA-N),GI50 (CAKI-1),GI50 (SF-295),GI50 (MDA-MB-435),GI50 (COLO 205),GI50 (IGROV-1),GI50 (SN12C),GI50 (HCT-116),GI50 (HT-29),GI50 (SNB-75),GI50 (Hs-578T)
CC(C)C1CC(CO)(CNc2nc(N)nc(Cl)c2/C=N\O)C1 (stereo not given),21.9 µM (inactive),10.3 µM (inactive),14.5 µM (inactive),0.339 µM (active),2.64 µM (inactive),12 µM (inactive),0.519 µM (active),0.687 µM (active),20.1 µM (inactive),11.3 µM (inactive),11.9 µM (inactive),1.01 µM (active),12.6 µM (inactive),2.37 µM (inactive),15.7 µM (inactive),23.2 µM (inactive),12.6 µM (inactive),4.34 µM (inactive),12.5 µM (inactive),15.9 µM (inactive)
C=CCNC1=C2C[C@@H](C)C[C@H](OC)[C@H](O)[C@@H](C)/C=C(\C)[C@H](OC(N)=O)[C@@H](OC)/C=C\C=C(/C)C(=O)NC(=CC1=O)C2=O [TANESPIMYCIN],0.15 µM (active),0.0262 µM (active),0.158 µM (active),0.0186 µM (active),0.0731 µM (active),0.292 µM (active),0.014 µM (active),0.0137 µM (active),0.525 µM (active),0.0199 µM (active),1.29 µM (inactive),0.0745 µM (active),0.0427 µM (active),0.0124 µM (active),0.0331 µM (active),0.0308 µM (active),0.0311 µM (active),0.0113 µM (active),0.0173 µM (active),0.575 µM (active)
CC(=O)O/C=C\OC1CCCC1(c1ccccc1)c1ccccc1 (stereo not given),12.4 µM (inactive),14.4 µM (inactive),3.52 µM (inactive),1.63 µM (inactive),2.65 µM (inactive),3.57 µM (inactive),2.49 µM (inactive),2.21 µM (inactive),11.2 µM (inactive),2.31 µM (inactive),4.5 µM (inactive),8.11 µM (inactive),1.96 µM (inactive),4.08 µM (inactive),2.24 µM (inactive),3.32 µM (inactive),1.98 µM (inactive),2.91 µM (inactive),3.35 µM (inactive),3.1 µM (inactive)
